# Assay results taken from patent US8815931B2, “Oral formulations for tetrapyrrole derivatives” (Biolitec Pharma Marketing Ltd, priority 2009, dated 2014).
# Read-outs that look alike come from different tables or passages of the source.
# Tests used:
# [1] = cited from earlier work; for Formation of metabolites in the body: in vivo
# bacteria cells = assay: Dark toxicity towards bacteria cells; assay type: cell-based; settings: 10 μM, no light
SMILES,Formation of metabolites in the body [1],Formation of metabolites in the body ([1]; listed as Temoporfin),Effect of lipoprotein levels and cholesterol metabolism on pharmacokinetics in plasma ([1]; plasma),Dark toxicity towards bacteria cells (bacteria cells)
"Oc1cccc(-c2c3nc(c(-c4cccc(O)c4)c4ccc([nH]4)c(-c4cccc(O)c4)c4nc(c(-c5cccc(O)c5)c5ccc2[nH]5)CC4)C=C3)c1 [mTHPC, m-tetrahydroxyphenylchlorin]",does not form metabolites,no known enzyme system in the mammalian body which can metabolize Temoporfin,neither lipoprotein levels nor cholesterol metabolism affects the pharmacokinetics,–
"CCCCCCc1c2nc(c(-c3ccc(C(=O)O)cc3)c3ccc([nH]3)c(-c3ccc(C(=O)O)cc3)c3nc(c(CCCCCC)c4ccc1[nH]4)C(O)C3O)C=C2 (stereo not shown) [BLC 6066, 2,3-Dihydro-2,3-dihydroxy-15,20-dihexyl-5,10-bis(4-carboxy-phenyl)porphyrin]",–,–,–,strong dark toxicity
